Source: patent publication US20100003217A1, “Compounds and Pharmaceutical Compositions for the Treatment of Viral Infections” (priority 2008, published 2010)
Read-outs that look alike come from different tables or passages of the source.

Test: Metabolite profile in rat liver
Assay type: in vivo, male Sprague-Dawley rats
Details: for Percent of Dose, Liver 24 h: after [14C]Compound 1; for concentration at 2 h / concentration at 6 h / concentration at 24 h: male, Sprague-Dawley, rat, liver
Method: Homogenates were prepared on dry ice in 70% methanol-30% water containing 20 mM EDTA and 20 mM EGTA (about 1× (w/v) weight of the liver) and were stored frozen. Pooled liver samples were prepared for all groups by combining a fixed percentage of the total weight of each individual animal sample homogenate for each group. Each pooled liver homogenate (3.77-5.02 g) was placed in a 50-mL polypropylene centrifuge tube and 16.0 mL of methanol:water (70:30) was added. The sample was vortexed for one minute, and then centrifuged at 11200×g for 20 minutes. The supernatant was transferred to a tube and total volume was measured. The extraction procedure was repeated three additional times. Radioactivity of each supernatant was determined by LSC of duplicate aliquots (100 μL each) for extraction recovery. Subsamples of all four extracts from each sample were taken for proportionate pooling. For Group 1, the subsamples were pooled before concentration and, for Group 2, each subsample was concentrated separately and then pooled due to the larger volumes involved. Each extract was completely dried or reduced to approximately 100 μL. Reconstitution was accomplished with methanol (20 μL) and sufficient volume of the aqueous mobile phase of HPLC method 2 such that the total volume of each reconstituted sample was 500 μL. Duplicate aliquots of the reconstituted samples were analyzed by LSC. Each sample was analyzed by HPLC method 2.
Percent of the administered dose (% AD) for parent drug and each metabolite at each collection period=(% of the total radioactivity in the sample attributed to the metabolite)*(total radioactivity expressed as % of the administered dose, recovered during the corresponding collection period).
Microgram equivalents/g for parent drug or metabolite at each collection period (% radioactivity for each metabolite)*(total μg equivalents/g during the corresponding collection period).
Liver homogenates were pooled for each time point for both dose groups by proportional mixing according to the weight of the samples from individual animals. The pooled samples were extracted and prepared for HPLC analysis as described above. The abundance of metabolites was determined as a % of the administered dose and as μg equivalent/g. The data are presented in Table 54, Table 55, Table 56 and Table 57, respectively. Metabolites R^1, R^8 and R^9 were characterized based on retention time.

[1] = group 1 (IV dose) pooled liver, 2 h
[2] = group 1 (IV dose) pooled liver, 2 h (Table 56)
[3] = group 1 (IV dose) pooled liver, 6 h
[4] = group 1 (IV dose) pooled liver, 6 h (Table 56)
[5] = group 1 (IV dose) pooled liver, 24 h
[6] = group 1 (IV dose) pooled liver, 24 h (Table 56)
[7] = group 2 (PO dose) pooled liver, 2 h
[8] = group 2 (PO dose) pooled liver, 2 h (Table 57)
[9] = group 2 (PO dose) pooled liver, 6 h
[10] = group 2 (PO dose) pooled liver, 6 h (Table 57)
[11] = group 2 (PO dose) pooled liver, 24 h
[12] = group 2 (PO dose) pooled liver, 24 h (Table 57)
[13] = iv, 50 mg/kg, group 1 (IV dose) pooled liver, 2 h, read-out: liver concentration as μg equivalents/g
[14] = iv, 50 mg/kg, group 1 (IV dose) pooled liver, 6 h, read-out: liver concentration as μg equivalents/g
[15] = iv, 50 mg/kg, group 1 (IV dose) pooled liver, 24 h, read-out: liver concentration as μg equivalents/g
[16] = po, 100 mg/kg, group 2 (PO dose) pooled liver, 2 h, read-out: liver concentration as μg equivalents/g
[17] = po, 100 mg/kg, group 2 (PO dose) pooled liver, 6 h, read-out: liver concentration as μg equivalents/g
[18] = po, 100 mg/kg, group 2 (PO dose) pooled liver, 24 h, read-out: liver concentration as μg equivalents/g
[19] = rat liver, IV dose, 2, 6 and 24 h
[20] = rat liver, IV dose, 2 h (Group 1A)
[21] = rat liver, IV dose, 6 h (Group 1B)
[22] = rat liver, PO dose, 2, 6 and 24 h

SMILES | Percent of Dose, Liver 24 h (IV) | Percent of Dose, Liver 24 h (Oral) | % AD [1] [% AD] | % HPLC (percent of HPLC peak area in the sample extract) [1] [%] | % HPLC (percent of HPLC peak area in the sample extract) [2] [%] | % AD [3] [% AD] | % HPLC (percent of HPLC peak area in the sample extract) [3] [%] | % HPLC (percent of HPLC peak area in the sample extract) [4] [%] | % AD [5] [% AD] | % HPLC (percent of HPLC peak area in the sample extract) [5] [%] | % HPLC (percent of HPLC peak area in the sample extract) [6] [%] | % AD [7] [% AD] | % HPLC (percent of HPLC peak area in the sample extract) [7] [%] | concentration at 2 h [13] [ng/g] | concentration at 6 h [14] [ng/g] | concentration at 24 h [15] [ng/g] | % of the total radioactivity in liver [19] | liver metabolite, % of the administered dose [20] [% AD] | liver metabolite, % of the administered dose [21] [% AD] | % of the total radioactivity in liver [22] | also measured
C[C@@]1(O)[C@H](O)[C@@H](COP(=O)(O)OP(=O)(O)O)O[C@H]1n1cnc2c(=O)[nH]c(N)nc21 [Compound 6, [(2R)-2-methyl-β-D-ribofuranosyl]guanine 5′-diphosphate] | 0.29% of Dose | 0.08% of Dose | 3.35 | 21.6 | 21.6 | 2.04 | 20.1 | 20.1 | 0.29 | 16.2 | 16.2 | 0.04 | 22.6 | 44400 | 27500 | 3770 | 16-22% | 3.4 | 2.0 | 15-46% | % HPLC (percent of HPLC peak area in the sample extract) [8]: 22.6%; % AD [9]: 0.06 % AD; % HPLC (percent of HPLC peak area in the sample extract) [9]: 15.0%; % HPLC (percent of HPLC peak area in the sample extract) [10]: 15.0%; % AD [11]: 0.08 % AD; % HPLC (percent of HPLC peak area in the sample extract) [11]: 46.1%; % HPLC (percent of HPLC peak area in the sample extract) [12]: 46.1%; concentration at 2 h [16]: 1150 ng/g; concentration at 6 h [17]: 1550 ng/g; concentration at 24 h [18]: 1880 ng/g; concentration at 2 h (po, 100 mg/kg, rat liver, PO dose, 2 h, read-out: liver metabolite concentration): 1100 ng/g; concentration at 6 h (po, 100 mg/kg, rat liver, PO dose, 6 h, read-out: liver metabolite concentration): 1600 ng/g; concentration at 24 h (po, 100 mg/kg, rat liver, PO dose, 24 h, read-out: liver metabolite concentration): 1900 ng/g; liver metabolite, % of the administered dose (rat liver, IV dose, 24 h): 0.29 % AD; liver metabolite, % of the administered dose (rat liver, IV dose, 24 h, listed as diphosphate): 0.3 % AD; liver metabolite, % of the administered dose (rat liver, PO dose, 2 h): 0.04 % AD; liver metabolite, % of the administered dose (rat liver, PO dose, 6 h): 0.06 % AD; liver metabolite, % of the administered dose (rat liver, PO dose, 24 h): 0.08 % AD
C[C@@]1(O)[C@H](O)[C@@H](CO)O[C@H]1n1cnc2c(=O)[nH]c(N)nc21 [2′-C-methyl guanosine, 9-(2-C-methyl-β-D-ribofuranosyl)guanine, reference compound] | 0.42% of Dose | 0.09% of Dose | 2.14 | 13.8 | 13.8 | 1.48 | 14.6 | 14.6 | 0.42 | 23.9 | 23.9 | 0.15 | 77.5 | 28400 | 20000 | 5560 | 14-24% |  |  | 54-85% | % HPLC (percent of HPLC peak area in the sample extract) [8]: 77.5%; % AD [9]: 0.32 % AD; % HPLC (percent of HPLC peak area in the sample extract) [9]: 85.0%; % HPLC (percent of HPLC peak area in the sample extract) [10]: 85.0%; % AD [11]: 0.09 % AD; % HPLC (percent of HPLC peak area in the sample extract) [11]: 53.9%; % HPLC (percent of HPLC peak area in the sample extract) [12]: 53.9%; concentration at 2 h [16]: 3940 ng/g; concentration at 6 h [17]: 8760 ng/g; concentration at 24 h [18]: 2200 ng/g
C[C@@]1(O)[C@H](O)[C@@H](COP(=O)(O)O)O[C@H]1n1cnc2c(=O)[nH]c(N)nc21 [Compound 5, [(2R)-2-methyl-β-D-ribofuranosyl]guanine 5′-monophosphate] | 1.05% of Dose |  | 9.73 | 62.6 | 62.6 | 6.39 | 63.1 | 63.1 | 1.05 | 59.9 | 59.9 |  |  | 129000 | 86200 | 13900 | 60-63% | 9.7 | 6.4 | not detected | liver metabolite, % of the administered dose (rat liver, IV dose, 24 h): 1.1 % AD
C[C@@]1(O)[C@H](O)[C@@H](COP(=O)(O)OP(=O)(O)OP(=O)(O)O)O[C@H]1n1cnc2c(=O)[nH]c(N)nc21 [Compound 7, [(2R)-2-methyl-β-D-ribofuranosyl]guanine 5′-triphosphate] |  |  | 0.05 | 0.29 | 0.29 | 0.04 | 0.35 | 0.35 |  |  |  |  |  | 600 | 480 |  |  | 0.05 | 0.04 |  | concentration at 2 h (iv, 50 mg/kg, rat liver, IV dose, 2 h (Group 1A), read-out: liver metabolite concentration): 600 ng/g; concentration at 6 h (iv, 50 mg/kg, rat liver, IV dose, 6 h (Group 1B), read-out: liver metabolite concentration): 480 ng/g
